Experimental data from US7148191B2, “Antigenic composition” (Intercell AG, priority 2000, dated 2006).

Key:
[1] = tested on: human monocyte-derived DCs; assay: In vitro phenotypic maturation of DCs, surface molecules by flow cytometry; type: cell-based; conditions: 48 hours; for phenotypic maturation of DCs (overall): each 10 μg/ml, LPS 1 μg/ml as control
[2] = tested on: OVA257-264-peptide-specific IFN-γ-producing T cells; assay: IFN-γ ELISPOT of draining lymph node cells after injection of OVA257-264-peptide mixtures; type: in vivo, mice (C57B1/6); conditions: Example 11; day 4; peptide 300 μg, oligo-dIC26-mer 5 nmol, pR 100 μg/mouse; footpad
Procedure: Experimental Groups (4 Mice Per Group) • 1. OVA257-264-peptide+pIC+pR • 2. OVA257-264-peptide+pIC • 3. OVA257-264-peptide+pR On day 0 mice were injected into each hind footpad with a total volume of 100 μl (50 μl per footpad) containing the above mentioned compounds. Animals were sacrificed 4 days after injection and popliteal lymph nodes were harvested. Single cell suspensions were prepared by mincing lymph nodes through a 70 μm cell strainer. Thereafter, cells were washed twice with DMEM medium (Life Technologies) containing 5% fetal calf serum (FCS, SIGMA Chemicals). Cells were adjusted to 10^7 cells/ml in DMEM/5% FCS. IFN-γ ELISPOT assays were carried out in triplicates as described (Miyahira et al., 1995). […] Spots were counted using a Biosys reader (Biosys, Germany). […] The Results are expressed as the number of spots/1×10^6 unseparated cells±SD of triplicates.

[3] = tested on: peptide-specific IFN-γ-producing T cells in spleen or peripheral blood; assay: IFN-γ ELISPOT of peripheral blood leukocytes or spleen cells (systemic response) after injection of OVA257-264-peptide mixtures; type: in vivo, mice (C57B1/6); conditions: Example 11, FIG. 11; selected time points after one single injection
Procedure: To investigate whether the immune response induced by one single injection of peptide with pIC/pR is systemic, the rest of the animals (four per group) was bled from the tail vein at selected time points after injection, peripheral blood leukocytes (PBLs) were isolated, re-stimulated either with the relevant peptide, pIC, pR, ConA (positive control) or medium alone (background) and the number of IFN-γ-secreting T lymphocytes was determined using an ELISPOT assay. Assays were carried out in duplicates. Each spot represents a single IFN-γ-producing T cell. Spots were counted using a Biosys reader (Biosys, Germany). Number of background spots was subtracted from all samples. Results are expressed as the number of spots/1×10^6 cells±SD of duplicates.
(§1) To examine whether the immune response induced by one single injection of peptide with oligo-dIC/pR is systemic, the rest of the mice (4 mice/group) was investigated at selected time points after injection for the presence of peptide-specific IFN-γ-producing T cells in spleen or peripheral blood using an IFN-γ ELISPOT assay. Results are expressed as the number of spots/1×10^6 cells±SD of duplicates.

[4] = tested on: OVA-specific T cells; assay: IFN-γ ELISPOT of draining lymph node cells after injection of ovalbumin (OVA) mixtures; type: in vivo, mice (C57B1/6); conditions: Example 12, FIG. 12A; OVA 50 μg, oligo-dIC26-mer 5 nmol, pR 100 μg/mouse; footpad; day 4 LN
Procedure: Experimental Groups (4 Mice Per Group) • 1. OVA257-264-peptide+pIC+pR • 2. OVA257-264-peptide+pIC • 3. OVA257-264-peptide+pR On day 0 mice were injected into each hind footpad with a total volume of 100 μl (50 μl per footpad) containing the above mentioned compounds. Animals were sacrificed 4 days after injection and popliteal lymph nodes were harvested. Single cell suspensions were prepared by mincing lymph nodes through a 70 μm cell strainer. Thereafter, cells were washed twice with DMEM medium (Life Technologies) containing 5% fetal calf serum (FCS, SIGMA Chemicals). Cells were adjusted to 10^7 cells/ml in DMEM/5% FCS. […] This method is a widely used procedure for the quantification of antigen-specific T cells. […] Spots were counted using a Biosys reader (Biosys, Germany). […] The Results are expressed as the number of spots/1×10^6 unseparated cells±SD of triplicates. […]
Experimental Groups (4 Mice Per Group) • 1. […] Results are expressed as the number of spots/1×10^6 cells±SD of triplicates. […] Importantly, the IFN-γ production was detected not only upon the re-stimulation with the whole OVA protein but also with both, MHC class I (OVA257-264)- and II (OVA265-280)-restricted OVA-derived epitopes (FIG. 9).
Experimental Groups (8 Mice Per Group) • 1. […] Results are expressed as the number of spots/1×10^6 cells±SD of triplicates.

[5] = tested on: peptide-specific IFN-γ-producing T cells in peripheral blood; assay: IFN-γ ELISPOT of peripheral blood leukocytes after injection of ovalbumin (OVA) mixtures; type: in vivo, mice (C57B1/6); conditions: Example 12, FIG. 12B; PBLs re-stimulated with OVA257-264-peptide; selected time points after one single injection
Source text: as §1, with “To further examine whether” for “To examine whether”, “injection of OVA protein with oligo-dIC/pR” for “injection of peptide with oligo-dIC/pR”, “cells in peripheral blood” for “cells in spleen or peripheral blood”

[6] = Example 10, FIG. 10, 10 μg/ml, day 6-cultured DCs, vs untreated DCs

Poly-L-arginine [pR]
phenotypic maturation of DCs (overall) ([1]; Example 10, FIG. 10): None of the above described phenotypic changes could be observed

OVA257–264-Peptide (SIINFEKL) [OVA257-264-peptide]
local antigen-specific response in draining lymph node cells [2]: could not be observed
systemic response (peptide-specific IFN-γ-producing T cells in spleen or peripheral blood) [3]: could not be observed

OVA: Ovalbumin from chicken egg, grade V, SIGMA Chemicals, A-5503
local antigen-specific T cell response in lymph node cells [4]: could not be observed
systemic response (peptide-specific IFN-γ-producing T cells in peripheral blood) [5]: could not be observed

Polyinosinic-polycytidylic acid [pIC]
expression of CD1a molecules [1, 6]: down-regulation
expression of CD86 and the maturation marker CD83 [1, 6]: de-novo expression
expression of HLA-DR, -DQ and HLA-I molecules, CD40, CD54, CD80 [1, 6]: up-regulation
phenotypic maturation of DCs (overall) ([1]; Example 10, FIG. 10): comparable to that induced by LPS
expression of CD11a, CD11c, CD13, CD25, CD29 and CD50 antigens ([1]; Example 10, 10 μg/ml, day 6-cultured DCs): slight up-regulation
